Results published in US10750743B2, “Pyridazinone herbicides” (E.I. DU PONT DE NEMOURS AND COMPANY, priority 2015, dated 2020).

Assays:
Type in all cases: in vivo
corn (Zea mays) = test: Test A postemergence application, visual injury rating; details: for Corn plant response rating: 0 to 100 scale, 0 no effect, 100 complete control
Outline: (§1)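 Injury ratings, 0 (no effect) to 100 (complete control), were scored visually versus untreated plants roughly 10 d after treatment under greenhouse conditions. Treatments used surfactant-containing solvent formulations, sprayed onto soil preemergence or onto one- to two-leaf seedlings (2-10 cm) postemergence, grown in a loam-sand mix.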

[1] = system: ragweed (common ragweed, Ambrosia elatior); test: as above; details: for Ragweed plant response rating: 0 to 100 scale, 0 no effect, 100 complete control
Outline: as §1

[2] = system: barnyardgrass (Echinochloa crus-galli); test: as above; details: 0 to 100 scale, 0 no effect, 100 complete control
Outline: as §1

[3] = system: pigweed (Amaranthus retroflexus); test: as above; details: for Pigweed plant response rating: 0 to 100 scale, 0 no effect, 100 complete control
Outline: as §1

kochia (Kochia scoparia) [4] = test: as above; details: for Kochia plant response rating: 0 to 100 scale, 0 no effect, 100 complete control
Outline: as §1

[5] = system: blackgrass (Alopecurus myosuroides); test: as above; details: 0 to 100 scale, 0 no effect, 100 complete control
Outline: as §1

[6] = system: wheat (Triticum aestivum); test: as above; details: for Wheat plant response rating: 0 to 100 scale, 0 no effect, 100 complete control
Outline: as §1

Foxtail, Green [7] = test: as above; details: for Foxtail, Green plant response rating: 0 to 100 scale, 0 no effect, 100 complete control
[8] = system: galium (catchweed bedstraw, Galium aparine); test: as above; details: for Galium plant response rating: 0 to 100 scale, 0 no effect, 100 complete control
Outline: as §1

[9] = system: ryegrass, It. (Italian ryegrass, Lolium multiflorum); test: as above; details: for Ryegrass, It. plant response rating: 0 to 100 scale, 0 no effect, 100 complete control
Outline: as §1

[10] = system: barnyardgrass (Echinochloa crus-galli); test: Test B flooded paddy test, visual rating; details: Flood, 250 g ai/ha, applied to paddy water, rated after 13 to 15 d
Outline: (§2)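 Ratings use a 0-100 visual scale, where 100 is complete control, and compare treated plants with controls after 13 to 15 d of greenhouse growth. Compound went straight into paddy water kept 3 cm over the soil surface, applied to seedlings at the 2-leaf stage.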

rice (Oryza sativa) = test: Test B flooded paddy test, visual rating; details: Flood, 250 g ai/ha, applied to paddy water, rated after 13 to 15 d
Outline: as §2

[11] = system: ducksalad (Heteranthera limosa); test: Test B flooded paddy test, visual rating; details: Flood, 250 g ai/ha, applied to paddy water, rated after 13 to 15 d
Outline: as §2

[12] = system: sedge, umbrella (small-flower umbrella sedge, Cyperus difformis); test: Test B flooded paddy test, visual rating; details: Flood, 250 g ai/ha, applied to paddy water, rated after 13 to 15 d
Outline: as §2

[13] = system: ragweed (common ragweed, Ambrosia elatior); test: Test A preemergence, directed soil spray, visual injury rating; details: 0 is no effect, 100 is complete control
Outline: as §1

[14] = system: barnyardgrass (Echinochloa crus-galli); test: as above; details: 0 is no effect, 100 is complete control
Outline: as §1

[15] = system: pigweed (Amaranthus retroflexus); test: as above; details: 0 is no effect, 100 is complete control
Outline: as §1

kochia (Kochia scoparia) [16] = test: as above; details: 0 is no effect, 100 is complete control
Outline: as §1

Foxtail, Green [17] = test: as above; details: 0 is no effect, 100 is complete control
[18] = system: ryegrass, It. (Italian ryegrass, Lolium multiflorum); test: as above; details: 0 is no effect, 100 is complete control
Outline: as §1

[19] = 31 g ai/ha, 0 is no effect, 100 is complete control

SMILES	Corn plant response rating (corn (Zea mays); 125 g ai/ha)	Ragweed plant response rating ([1]; 125 g ai/ha)	Barnyardgrass plant response rating ([2]; 31 g ai/ha)	Barnyardgrass plant response rating ([2]; 125 g ai/ha)	Pigweed plant response rating ([3]; 125 g ai/ha)	Kochia plant response rating (kochia (Kochia scoparia) [4]; 125 g ai/ha)	Blackgrass plant response rating ([5]; 31 g ai/ha)	Blackgrass plant response rating ([5]; 125 g ai/ha)	Wheat plant response rating ([6]; 125 g ai/ha)	Foxtail, Green plant response rating (Foxtail, Green [7]; 125 g ai/ha)	Galium plant response rating ([8]; 125 g ai/ha)	Ryegrass, It. plant response rating ([9]; 125 g ai/ha)	Barnyardgrass plant response rating (0 to 100 scale, 0 is no effect, 100 is complete control) [10]	Rice plant response rating (0 to 100 scale, 0 is no effect, 100 is complete control) (rice (Oryza sativa))	Ducksalad plant response rating (0 to 100 scale, 0 is no effect, 100 is complete control) [11]	Sedge, Umbrella plant response rating (0 to 100 scale, 0 is no effect, 100 is complete control) [12]	Plant response rating (0 to 100 scale), Ragweed ([13]; 31 g ai/ha)	Plant response rating (0 to 100 scale), Ragweed ([13]; 125 g ai/ha)	Plant response rating (0 to 100 scale), Barnyardgrass ([14]; 31 g ai/ha)	Plant response rating (0 to 100 scale), Barnyardgrass ([14]; 125 g ai/ha)	also measured
Cc1cc2ccc(C(F)(F)F)c(-c3c(O)c(C)nn(C)c3=O)c2o1 [Compound 49]	20	90	0	10	100	80	0	0	0	30	90	40	0	0	0	0	0	90	0	0	Corn plant response rating (corn (Zea mays); 31 g ai/ha): 0; Ragweed plant response rating ([1]; 31 g ai/ha): 80; Pigweed plant response rating ([3]; 31 g ai/ha): 90; Kochia plant response rating (kochia (Kochia scoparia) [4]; 31 g ai/ha): 60; Wheat plant response rating ([6]; 31 g ai/ha): 0; Foxtail, Green plant response rating (Foxtail, Green [7]; 31 g ai/ha): 20; Galium plant response rating ([8]; 31 g ai/ha): 80; Ryegrass, It. plant response rating ([9]; 31 g ai/ha): 10; Plant response rating (0 to 100 scale), Pigweed ([15]; 31 g ai/ha): 30; Plant response rating (0 to 100 scale), Pigweed ([15]; 125 g ai/ha): 100; Plant response rating (0 to 100 scale), Kochia (kochia (Kochia scoparia) [16]; 31 g ai/ha): 0; Plant response rating (0 to 100 scale), Kochia (kochia (Kochia scoparia) [16]; 125 g ai/ha): 40; Plant response rating (0 to 100 scale), Foxtail, Green (Foxtail, Green [17]; 31 g ai/ha): 0; Plant response rating (0 to 100 scale), Foxtail, Green (Foxtail, Green [17]; 125 g ai/ha): 0; Plant response rating (0 to 100 scale), Ryegrass, It. ([18]; 31 g ai/ha): 20; Plant response rating (0 to 100 scale), Ryegrass, It. ([18]; 125 g ai/ha): 50
Cn1ncc(O)c(-c2cccc3cnccc23)c1=O [Compound 34]	0	0	0	0	0	0	0	0	0	0	0	0	0	0	0	0	0	0	0	0	Corn plant response rating (corn (Zea mays); 31 g ai/ha): 0; Ragweed plant response rating ([1]; 31 g ai/ha): 0; Pigweed plant response rating ([3]; 31 g ai/ha): 0; Kochia plant response rating (kochia (Kochia scoparia) [4]; 31 g ai/ha): 0; Wheat plant response rating ([6]; 31 g ai/ha): 0; Foxtail, Green plant response rating (Foxtail, Green [7]; 31 g ai/ha): 0; Galium plant response rating ([8]; 31 g ai/ha): 0; Ryegrass, It. plant response rating ([9]; 31 g ai/ha): 0; Plant response rating (0 to 100 scale), Pigweed ([15]; 31 g ai/ha): 0; Plant response rating (0 to 100 scale), Pigweed ([15]; 125 g ai/ha): 0; Plant response rating (0 to 100 scale), Kochia (kochia (Kochia scoparia) [16]; 31 g ai/ha): 0; Plant response rating (0 to 100 scale), Kochia (kochia (Kochia scoparia) [16]; 125 g ai/ha): 0; Plant response rating (0 to 100 scale), Foxtail, Green (Foxtail, Green [17]; 31 g ai/ha): 0; Plant response rating (0 to 100 scale), Foxtail, Green (Foxtail, Green [17]; 125 g ai/ha): 0; Plant response rating (0 to 100 scale), Ryegrass, It. ([18]; 31 g ai/ha): 0; Plant response rating (0 to 100 scale), Ryegrass, It. ([18]; 125 g ai/ha): 0
CCC(=O)Oc1c(C)nn(C)c(=O)c1-c1c(Br)ccc2c1cnn2C [Compound 64]	0	0	0	0	0	0	60	0	0	0	50	0	0	0	0	0	0	0	0	0	Plant response rating (0 to 100 scale), Corn (corn (Zea mays); [19]): 0; Plant response rating (0 to 100 scale), Ragweed [1, 19]: 0; Plant response rating (0 to 100 scale), Pigweed [3, 19]: 0; Plant response rating (0 to 100 scale), Kochia (kochia (Kochia scoparia) [4]; [19]): 0; Plant response rating (0 to 100 scale), Wheat [6, 19]: 0; Plant response rating (0 to 100 scale), Foxtail, Green (Foxtail, Green [7]; [19]): 0; Plant response rating (0 to 100 scale), Galium [8, 19]: 30; Plant response rating (0 to 100 scale), Ryegrass, It. [9, 19]: 0; Plant response rating (0 to 100 scale), Pigweed ([15]; 31 g ai/ha): 0; Plant response rating (0 to 100 scale), Pigweed ([15]; 125 g ai/ha): 0; Plant response rating (0 to 100 scale), Kochia (kochia (Kochia scoparia) [16]; 31 g ai/ha): 0; Plant response rating (0 to 100 scale), Kochia (kochia (Kochia scoparia) [16]; 125 g ai/ha): 0; Plant response rating (0 to 100 scale), Foxtail, Green (Foxtail, Green [17]; 31 g ai/ha): 0; Plant response rating (0 to 100 scale), Foxtail, Green (Foxtail, Green [17]; 125 g ai/ha): 0; Plant response rating (0 to 100 scale), Ryegrass, It. ([18]; 31 g ai/ha): 0; Plant response rating (0 to 100 scale), Ryegrass, It. ([18]; 125 g ai/ha): 0
Cc1nn(C)c(=O)c(-c2ccc(Cl)c3ccoc23)c1O [Compound 56]	0	0	0	10	0	0	0	0	0	10	100	50	0	0	0	0	0	0	0	0	Corn plant response rating (corn (Zea mays); 31 g ai/ha): 0; Ragweed plant response rating ([1]; 31 g ai/ha): 0; Pigweed plant response rating ([3]; 31 g ai/ha): 0; Kochia plant response rating (kochia (Kochia scoparia) [4]; 31 g ai/ha): 0; Wheat plant response rating ([6]; 31 g ai/ha): 0; Foxtail, Green plant response rating (Foxtail, Green [7]; 31 g ai/ha): 0; Galium plant response rating ([8]; 31 g ai/ha): 60; Ryegrass, It. plant response rating ([9]; 31 g ai/ha): 50; Plant response rating (0 to 100 scale), Pigweed ([15]; 31 g ai/ha): 0; Plant response rating (0 to 100 scale), Pigweed ([15]; 125 g ai/ha): 40; Plant response rating (0 to 100 scale), Kochia (kochia (Kochia scoparia) [16]; 31 g ai/ha): 0; Plant response rating (0 to 100 scale), Kochia (kochia (Kochia scoparia) [16]; 125 g ai/ha): 0; Plant response rating (0 to 100 scale), Foxtail, Green (Foxtail, Green [17]; 31 g ai/ha): 0; Plant response rating (0 to 100 scale), Foxtail, Green (Foxtail, Green [17]; 125 g ai/ha): 0; Plant response rating (0 to 100 scale), Ryegrass, It. ([18]; 31 g ai/ha): 10; Plant response rating (0 to 100 scale), Ryegrass, It. ([18]; 125 g ai/ha): 70
